Test results taken from patent US20250381307A1, “RETRO-AAV AND USE IN TREATING NEURODEGENERATIVE DISEASES” (priority 2023, published 2025).

Target: T1, rM3Ds (Rattus norvegicus, UniProt P08483, A177S/A238G/A489L/DEL261-437/DEL441-478/E258S/I253V/I483M/INS256[…]/K178L/K182A/K255R/K484R/K486H/L173F/L482A/M480V/R171S/R176Q/R179M/S481M/T174R/T181R/T257A/Y148C)
T1 sequence (P08483 with tags, fused parts or gaps Y148C/R171S/L173F/T174R/R176Q/A177S/K178L/R179M/T181R/K182A/A238G/I253V/K255R/INS256[…]/T257A/E258S/DEL261-437/DEL441-478/M480V/S481M/L482A/I483M/K484R/K486H/A489L): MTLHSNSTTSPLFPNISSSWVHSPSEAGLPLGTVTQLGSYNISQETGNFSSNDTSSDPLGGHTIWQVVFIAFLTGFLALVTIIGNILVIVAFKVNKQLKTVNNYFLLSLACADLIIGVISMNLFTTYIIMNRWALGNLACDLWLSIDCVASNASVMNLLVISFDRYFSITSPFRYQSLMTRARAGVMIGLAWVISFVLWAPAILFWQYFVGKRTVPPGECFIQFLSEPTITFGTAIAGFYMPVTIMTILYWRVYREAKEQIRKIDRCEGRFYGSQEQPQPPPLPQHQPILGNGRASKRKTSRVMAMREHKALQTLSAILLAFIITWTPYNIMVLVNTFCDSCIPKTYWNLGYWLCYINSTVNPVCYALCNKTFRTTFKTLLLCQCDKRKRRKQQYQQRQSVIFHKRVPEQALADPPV
Test: In vivo electrophysiological recording in caudate/putamen of MPP+ lesioned macaques
Parameters: rM3Ds; 2A-EYFP (C); host or cells: AAV8R12-transduced striatal D1-MSNs of mice and cynomolgus macaques (in vivo and acute slices)
Protocol: Electrophysiological recording was performed through a recording chamber while the monkey was anesthetized. Neural responses were recorded by a 16-channel linear probe (Plexon Inc, Uprobe) driven by a mechanical microdrive (Alpha Omega, FlexMT). Signals were passed through a head stage (Plexon Inc, HST/16V-G20 LN) and then split and filtered between 300 Hz and 5 kHz to identify spiking activity with an amplifier system (Plexon Inc, OmniPlex). Detected spikes were then sorted by commercially available software (Plexon Inc, Offline Sorter) for further analysis. To quantify the effect of CNO/DCZ injection, neural activity was recorded for 60 minutes following CNO/DCZ injection. The response time-course for each channel was obtained by counting the spikes within every 10-minute window and then normalizing to the maximal.
To determine the effect of CNO/DCZ injection on the direction of signal change, we performed Pearson correlation between neural responses and time using the ‘corr’ function in Matlab, which generates the correlation coefficient ‘r’ and significant level ‘p’. A neuron was considered to have “Increased” activity when r>0 and p<0.05; and considered to have “Decreased” activity when r<0 and p<0.05. Otherwise, neurons were considered to be “Unchanged” in their neural activities. The responses of all increased neurons were then averaged after being normalized by the maximal response (Crowe et al., 2014; Dai and Wang, 2018; Hirokawa et al., 2019) following CNO/DCZ injection, and then plotted as a function of time to generate the normalized population response.

For `C[N+]1([O-])CCN(C2=Nc3cc(Cl)ccc3Nc3ccccc32)CC1` [CNO, clozapine N-oxide], the “caudate/putamen cells activated (FIG. 15G)” value (CNO 36 cells, DCZ 31 cells, saline 17.9%) was 52.8%, the “caudate/putamen cells inactivated (FIG. 15G)” value (saline 33.4%) was 13.9% and the “caudate/putamen cells unchanged (FIG. 15G)” value (saline 48.7%) was 33.3%.
